Measured values published in patent publication US7745222B2, “Amyloid binding assays” (priority 2006, dated 2010).

Assays:
[1] = tested on: A-beta fibrils (human A-beta 1-40); assay type: binding; details: A-beta fibrils on rat brain section; fluorescence imaging; FIG. 4-5
Protocol: (§1) In one embodiment, sections of Sprauge-Dawley naïve rat brain (Taconic) 10 microns in thickness were fixed with 10% formalin in phosphate buffered saline (PBS).
The clear film of A-beta 1-40 was diluted with distilled water to achieve a 6-mg/mL concentration. […] The clear solution was diluted to 1 mg/mL with PBS, pH 7.4 to obtain a final concentration of 1 mg/mL A-beta 1-40 then incubated at 37° C. on an orbital shaker at 200 RPM for 4 days.
(§2) The slides were washed with PBS three times then incubated with blocking buffer consisting of 10% normal goat serum in 3% BSA in PBS.
(§3) For the sandwich assay approach 100 μL of 1/250th dilution of anti-A-beta antibody, (Signet) was applied to the tissue. The tissue was then incubated for 1.5 hours at room temperature, or in an alternative approach, for 45 minutes at 37° C. Next, a 1/100th dilution of the secondary antibody Alexa Flour 594-goat antimouse IgG (Molecular Probes) was prepared in PBS and 100 μl was applied to the slides, which were then incubated at room temperature for 1.5 hours. […]
(§4) Microscopic examination was performed using a Leica (Leica Microsystems Inc, Bannockburn Ill.) wide-field fluorescence microscope.
(§5) The fluorescent images were quantified by calculating the sum of pixel intensity of the immunofluorescence for each amyloid species. […]

[2] = tested on: soluble oligomeric A-beta (human beta-amyloid 1-42); assay type: binding; details: for binding to soluble oligomeric A-beta: A-beta species on Sprague-Dawley naive rat brain section (hippocampus), fluorescence imaging, FIG. 2-3
Protocol: as §1
Soluble A-beta oligomer formation. 1 mg of human beta-amyloid 1-42 (H-5642, Bachem) and 500 uL of 1,1,1,3,3,3 hexafluoro-2-propanol (HFIP) (Aldrich) were chilled in separate bottles on ice for 30 minutes. Cold beta-amyloid 1-42 was solubilized with cold HFIP. The mixture was incubated for 1 hr at room temperature until it turned clear. The resulting solution was then dried to a film under vacuum. The film was dissolved again in cold HFIP and incubated another 1 hr at room temperature. The resulting solution was separated into aliquots in several microcentrifuge tubes. HFIP was removed under vacuum, and the films were stored at −20° C. until use. To prepare soluble oligomer, the film was dissolved in appropriate amount of dry DMSO (Sigma), and Ham's F12 media (Biosource) or PBS (Sigma, D8537) was added and incubated at 4° C. for 24 hours (final concentration of 200 uM or 0.9 mg/mL beta-amyloid in 2% DMSO).
as §2, §3, §4, §5

| Structure (SMILES) | binding to A-beta fibrils [1] | binding to soluble oligomeric A-beta [2] | preferential binding, soluble A-beta relative to insoluble A-beta ([2]; stated as validated property of the binder) |
| --- | --- | --- | --- |
| O=Cc1ccc(-c2oc3ccccc3c2CO)o1 [68B-3] | bound | bound | preferential binder for soluble A-beta |
| Cc1ccc2c(c1)sc(-c1ccc(N(C)C)cc1)[n+]2C.[Cl-] [Thioflavin T] | bound | bound |  |
